Measured values reported in PubChem BioAssay AID180 (DTP/NCI, 2004).
Several values for one entry are separate records, joined by “and”; a condition that tells them apart may be missing. Equal values may be shown once.

System: BDF1 mice, Adenocarcinoma 755 s.c., tumor weight T/C
Experiment: NCI In Vivo Anticancer Drug Screen. Data for tumor model Adenocarcinoma 755 (subcutaneous) in B6D2F1 (BDF1) mice
Conditions: endpoint: mean tumor weight, higher = larger tumour
In short: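 In vivo antitumor screen on a transplantable tumor line. Result equals the measure in compound-treated animals divided by the same measure in vehicle controls.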

[1] = dose: 150.0 mg/kg/injection, schedule: Q01DX011 (ip), vehicle: carboxymethylcellulose (CMC)
[2] = dose: 25.0 mg/kg/injection, schedule: Q01DX011 (ip), vehicle: saline
[3] = dose: 50.0 mg/kg/injection, schedule: Q01DX011 (ip), vehicle: saline
[4] = dose: 100.0 mg/kg/injection, schedule: Q01DX011 (ip), vehicle: saline
[5] = dose: 200.0 mg/kg/injection, schedule: Q01DX011 (ip), vehicle: saline
[6] = dose: 15.0 mg/kg/injection, schedule: Q01DX011 (ip), vehicle: methylcellulose (MC)

O=C(O)Cc1ccc(C2CCCCC2)cc1
T/C (dose: 37.5 mg/kg/injection, schedule: Q01DX011 (ip), vehicle: carboxymethylcellulose (CMC)): 164 % of control
T/C (dose: 75.0 mg/kg/injection, schedule: Q01DX011 (ip), vehicle: carboxymethylcellulose (CMC)): 81 % of control
T/C [1]: 120 % of control
T/C (dose: 300.0 mg/kg/injection, schedule: Q01DX011 (ip), vehicle: carboxymethylcellulose (CMC)): 53 % of control

CS(=O)(=O)OCCCl
T/C (dose: 20.88 mg/kg/injection, schedule: Q01DX011 (ip), vehicle: carboxymethylcellulose (CMC)): 80 % of control
T/C (dose: 28.73 mg/kg/injection, schedule: Q01DX011 (ip), vehicle: carboxymethylcellulose (CMC)): 80 % of control
T/C (dose: 40.25 mg/kg/injection, schedule: Q01DX011 (ip), vehicle: carboxymethylcellulose (CMC)): 52 % of control
T/C (dose: 41.75 mg/kg/injection, schedule: Q01DX011 (ip), vehicle: carboxymethylcellulose (CMC)): 117 % of control
T/C (dose: 83.5 mg/kg/injection, schedule: Q01DX011 (ip), vehicle: carboxymethylcellulose (CMC)): 97 % of control
T/C (dose: 114.9 mg/kg/injection, schedule: Q01DX011 (ip), vehicle: carboxymethylcellulose (CMC)): 88 % of control and 103 % of control
T/C (dose: 130.0 mg/kg/injection, schedule: Q01DX011 (ip), vehicle: carboxymethylcellulose (CMC)): 54 % of control
T/C (dose: 140.0 mg/kg/injection, schedule: Q01DX011 (ip), vehicle: carboxymethylcellulose (CMC)): 21 % of control
T/C [1]: 11 % of control

O=C(NCCCCCCCCCCNC(=O)N1CC1)N1CC1
T/C (dose: 0.5 mg/kg/injection, schedule: Q01DX011 (ip), vehicle: carboxymethylcellulose (CMC)): 57 % of control and 66 % of control
T/C (dose: 1.0 mg/kg/injection, schedule: Q01DX011 (ip), vehicle: carboxymethylcellulose (CMC)): 2 % of control and 20 % of control

OC(CBr)C(O)C(O)C(O)CBr (centres undefined)
T/C [2]: 48 % of control
T/C [3]: 64 % of control and 71 % of control
T/C [4]: 66 % of control and 72 % of control
T/C [5]: 38 % of control and 50 % of control
T/C (dose: 400.0 mg/kg/injection, schedule: Q01DX011 (ip), vehicle: saline): 29 % of control

CCOCCNS(=O)(=O)c1ncnc2nc[nH]c12
T/C (dose: 11.2 mg/kg/injection, schedule: Q01DX011 (ip), vehicle: carboxymethylcellulose (CMC)): 53 % of control
T/C (dose: 22.5 mg/kg/injection, schedule: Q01DX011 (ip), vehicle: carboxymethylcellulose (CMC)): 9 % of control
T/C (dose: 30.0 mg/kg/injection, schedule: Q01DX011 (ip), vehicle: carboxymethylcellulose (CMC)): 2 % of control
T/C (dose: 45.0 mg/kg/injection, schedule: Q01DX011 (ip), vehicle: carboxymethylcellulose (CMC)): 3 % of control
T/C (dose: 60.0 mg/kg/injection, schedule: Q01DX011 (ip), vehicle: carboxymethylcellulose (CMC)): 1 % of control

CN(C)[C@@H]1C(=O)C(C(=O)NCNc2nc3n[nH]nc3c(=O)[nH]2)=C(O)[C@@]2(O)C(=O)C3=C(O)c4c(O)cccc4[C@@](C)(O)[C@H]3C[C@@H]12
T/C [2]: 89 % of control
T/C [3]: 93 % of control
T/C [4]: 79 % of control
T/C [5]: 40 % of control

NC(=O)CF
T/C (dose: 2.5 mg/kg/injection, schedule: Q01DX011 (ip), vehicle: other): 72 % of control

CSc1ncc(C)c(Nc2ccc(Cl)cc2)n1
T/C [6]: 102 % of control

CC(=O)NCCc1ccccc1
T/C (dose: 12.5 mg/kg/injection, schedule: Q01DX011 (ip), vehicle: other): 106 % of control
T/C (dose: 25.0 mg/kg/injection, schedule: Q01DX011 (ip), vehicle: other): 71 % of control
T/C (dose: 50.0 mg/kg/injection, schedule: Q01DX011 (ip), vehicle: other): 99 % of control
T/C (dose: 100.0 mg/kg/injection, schedule: Q01DX011 (ip), vehicle: other): 87 % of control
T/C (dose: 200.0 mg/kg/injection, schedule: Q01DX011 (ip), vehicle: other): 59 % of control
T/C (dose: 400.0 mg/kg/injection, schedule: Q01DX011 (ip), vehicle: other): 49 % of control

C[C@]12CC[C@@H]3c4ccc(OC(=O)c5ccccc5)cc4CC[C@H]3[C@@H]1CC[C@@H]2O
T/C (dose: 77.31 mg/kg/injection, schedule: Q01DX011 (sc), vehicle: steriod suspending solution): 81 % of control
T/C (dose: 125.0 mg/kg/injection, schedule: Q01DX011 (sc), vehicle: steriod suspending solution): 66 % of control
T/C (dose: 154.63 mg/kg/injection, schedule: Q01DX011 (sc), vehicle: steriod suspending solution): 94 % of control
T/C (dose: 250.0 mg/kg/injection, schedule: Q01DX011 (sc), vehicle: steriod suspending solution): 87 % of control
T/C (dose: 309.25 mg/kg/injection, schedule: Q01DX011 (sc), vehicle: steriod suspending solution): 72 % of control
T/C (dose: 500.0 mg/kg/injection, schedule: Q01DX011 (sc), vehicle: steriod suspending solution): 84 % of control
T/C (dose: 618.5 mg/kg/injection, schedule: Q01DX011 (sc), vehicle: steriod suspending solution): 91 % of control
T/C (dose: 1000.0 mg/kg/injection, schedule: Q01DX011 (sc), vehicle: steriod suspending solution): 54 % of control

NC1(C(=O)O)CCCC1
T/C (dose: 4.45 mg/kg/injection, schedule: Q01DX011 (ip), vehicle: carboxymethylcellulose (CMC)): 71 % of control
T/C (dose: 7.5 mg/kg/injection, schedule: Q01DX011 (ip), vehicle: methylcellulose (MC)): 61 % of control
T/C (dose: 8.9 mg/kg/injection, schedule: Q01DX011 (ip), vehicle: carboxymethylcellulose (CMC)): 70 % of control
T/C (dose: 13.12 mg/kg/injection, schedule: Q01DX011 (ip), vehicle: carboxymethylcellulose (CMC)): 42 % of control
T/C (dose: 14.24 mg/kg/injection, schedule: Q01DX011 (ip), vehicle: carboxymethylcellulose (CMC)): 83 % of control
T/C [6]: 96 % of control
T/C (dose: 16.0 mg/kg/injection, schedule: Q01DX011 (ip), vehicle: saline): 43 % of control
T/C (dose: 18.0 mg/kg/injection, schedule: Q01DX011 (ip), vehicle: methylcellulose (MC)): 40 % of control
T/C (dose: 23.73 mg/kg/injection, schedule: Q01DX011 (ip), vehicle: carboxymethylcellulose (CMC)): 55 % of control
T/C (dose: 30.0 mg/kg/injection, schedule: Q01DX011 (ip), vehicle: methylcellulose (MC)): 12 % of control
T/C (dose: 31.3 mg/kg/injection, schedule: Q01DX011 (ip), vehicle: saline): 13 % of control
T/C (dose: 35.6 mg/kg/injection, schedule: Q01DX011 (ip), vehicle: carboxymethylcellulose (CMC)): 33 % of control and 38 % of control
T/C (dose: 37.5 mg/kg/injection, schedule: Q01DX011 (ip), vehicle: methylcellulose (MC)): 16 % of control
T/C (dose: 42.0 mg/kg/injection, schedule: Q01DX011 (ip), vehicle: carboxymethylcellulose (CMC)): 31 % of control
T/C (dose: 42.0 mg/kg/injection, schedule: Q01DX011 (oral), vehicle: saline): 10 % of control
T/C (dose: 52.5 mg/kg/injection, schedule: Q01DX011 (ip), vehicle: carboxymethylcellulose (CMC)): 8 % of control and 14 % of control
T/C (dose: 60.0 mg/kg/injection, schedule: Q01DX011 (ip), vehicle: methylcellulose (MC)): 12 % of control
T/C (dose: 62.5 mg/kg/injection, schedule: Q01DX011 (ip), vehicle: saline): 6 % of control
T/C (dose: 63.0 mg/kg/injection, schedule: Q01DX011 (oral), vehicle: saline): 4 % of control
T/C (dose: 70.0 mg/kg/injection, schedule: Q01DX011 (ip), vehicle: carboxymethylcellulose (CMC)): 4 % of control
T/C (dose: 95.0 mg/kg/injection, schedule: Q01DX011 (oral), vehicle: saline): 1 % of control
T/C (dose: 105.0 mg/kg/injection, schedule: Q01DX011 (ip), vehicle: carboxymethylcellulose (CMC)): 3 % of control and 6 % of control

O=C(O)c1cc(Cl)nc(Cl)n1
T/C (dose: 31.0 mg/kg/injection, schedule: Q01DX011 (ip), vehicle: methylcellulose (MC)): 92 % of control
T/C (dose: 62.0 mg/kg/injection, schedule: Q01DX011 (ip), vehicle: methylcellulose (MC)): 103 % of control
T/C (dose: 125.0 mg/kg/injection, schedule: Q01DX011 (ip), vehicle: methylcellulose (MC)): 105 % of control

CC1CCC(n2cnc3c(N)ncnc32)O1 (centres undefined)
T/C (dose: 30.0 mg/kg/injection, schedule: Q01DX011 (ip), vehicle: saline): 108 % of control
T/C (dose: 60.0 mg/kg/injection, schedule: Q01DX011 (ip), vehicle: saline): 119 % of control
T/C (dose: 120.0 mg/kg/injection, schedule: Q01DX011 (ip), vehicle: saline): 66 % of control
T/C (dose: 240.0 mg/kg/injection, schedule: Q01DX011 (ip), vehicle: saline): 25 % of control
